Data on one compound can be found in BindingDB's records for doi:10.1021/acs.jmedchem.1c01655 (University of California San Diego, 2022).

For this experiment, the target named is T1, Carboxy-terminal domain RNA polymerase II polypeptide A small phosphatase 1 (Homo sapiens, UniProt Q9GZU7).
T1 sequence (Q9GZU7 whole entry): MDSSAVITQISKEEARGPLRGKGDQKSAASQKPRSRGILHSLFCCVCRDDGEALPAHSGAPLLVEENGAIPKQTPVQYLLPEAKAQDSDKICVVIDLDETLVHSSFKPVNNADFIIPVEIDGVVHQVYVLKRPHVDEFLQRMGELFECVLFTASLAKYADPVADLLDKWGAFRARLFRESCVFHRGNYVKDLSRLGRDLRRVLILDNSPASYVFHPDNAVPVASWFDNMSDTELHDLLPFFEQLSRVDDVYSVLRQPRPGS
The experiment in a line: Inhibition of wild type human SCP1 using pNPP as substrate incubated for 0.5 to 18 hrs followed by substrate addition by absorbance based analysis.

In general, IC50 refers to the concentration that gives 50% inhibition. Lower therefore signals greater potency in that assay. Regarding `O=C(C1=CC2=C(CCC2)S1(=O)=O)N1CCN(S(=O)(=O)c2ccc(F)cc2)CC1`, it took 220 µM to reach half-maximal inhibition (IC50).
